Key:
[1] = system: monocotyledonous and dicotyledonous weed plants; test: Pre-emergence herbicidal action (greenhouse pot test, visual scoring after about 3 weeks); format: in vivo; details: for Herbicidal activity ABUTH (Abutilon theophrasti) / Herbicidal activity AMARE (Amaranthus retroflexus) / Herbicidal activity AVEFA (Avena fatua) / Herbicidal activity CYPES (Cyperus esculentus) / Herbicidal activity ECHCG (Echinochloa crus-galli) / Herbicidal activity MATIN (Matricaria inodora) / Herbicidal activity PHBPU (Ipomoea purpurea) / Herbicidal activity POLCO (Polygonum convolvulus) / Herbicidal activity SETVI (Setaria viridis) / Herbicidal activity STEME (Stellaria media) / Herbicidal activity VERPE (Veronica persica) / Herbicidal activity VIOTR (Viola tricolor): pre-emergence (PE)
Text: In the tables below, the following abbreviations are used: Undesired Plants/Weeds: [table] 1. Pre-Emergence Herbicidal Action and Crop Plant Compatibility Seeds of monocotyledonous and dicotyledonous weed plants and crop plants are placed in plastic or organic planting pots and covered with soil. The compounds of the invention, formulated in the form of wettable powders (WP) or as emulsion concentrates (EC), are then applied onto the surface of the covering soil as aqueous suspension or emulsion with addition of 0.5% additive at a water application rate of […] (converted). After the treatment, the pots are placed in a greenhouse and kept under good growth conditions for the trial plants. After about 3 weeks, the effect of the preparations is scored visually in comparison with untreated controls as percentages. The tables below show the herbicidal activity of numerous compounds according to the invention against important harmful plants. For example, 100% activity=the plants have died, 0% activity=like control plants.

[2] = system: monocotyledonous and dicotyledonous weeds; test: Post-emergence herbicidal action (greenhouse pot test, visual rating after about 3 weeks); format: in vivo; details: for Herbicidal activity ABUTH (Abutilon theophrasti) / Herbicidal activity AMARE (Amaranthus retroflexus) / Herbicidal activity ECHCG (Echinochloa crus-galli) / Herbicidal activity MATIN (Matricaria inodora) / Herbicidal activity SETVI (Setaria viridis) / Herbicidal activity STEME (Stellaria media) / Herbicidal activity VERPE (Veronica persica) / Herbicidal activity VIOTR (Viola tricolor): post-emergence (PO)
Description: In the tables below, the following abbreviations are used: Undesired Plants/Weeds: [table] 2. Post-Emergence Herbicidal Action and Crop Plant Compatibility Seeds of monocotyledonous and dicotyledonous weeds and crop plants are placed in sandy loam in plastic or organic planting pots, covered with soil and cultivated in a greenhouse under controlled growth conditions. 2 to 3 weeks after sowing, the test plants are treated at the one-leaf stage. The compounds of the invention, formulated in the form of wettable powders (WP) or as emulsion concentrates (EC), are then sprayed onto the green parts of the plants as aqueous suspension or emulsion with addition of 0.5% additive at a water application rate of […] (converted). After the test plants had been kept in the greenhouse under optimum growth conditions for about 3 weeks, the activity of the preparations is rated visually in comparison to untreated controls. The tables below show the herbicidal activity of numerous compounds according to the invention against important harmful plants. For example, 100% activity=the plants have died, 0% activity=like control plants.

[3] = application rate 320, about 3 weeks
[4] = application rate 80, about 3 weeks
[5] = application rate 20, about 3 weeks
[6] = pre-emergence comparative experiment, dosage 320 g/ha
[7] = post-emergence comparative experiment, dosage 80 g/ha

## Cn1nnnc1NC(=O)c1ccc(C(F)(F)F)c2c1OCCCS2(=O)=O [2-19]
[1]; [3]
  Herbicidal activity ABUTH (Abutilon theophrasti): 100%
  Herbicidal activity AMARE (Amaranthus retroflexus): 100%
  Herbicidal activity AVEFA (Avena fatua): 80%
  Herbicidal activity CYPES (Cyperus esculentus): 100%
  Herbicidal activity ECHCG (Echinochloa crus-galli): 100%
  Herbicidal activity MATIN (Matricaria inodora): 100%
  Herbicidal activity PHBPU (Ipomoea purpurea): 100%
  Herbicidal activity POLCO (Polygonum convolvulus): 90%
  Herbicidal activity SETVI (Setaria viridis): 100%
  Herbicidal activity STEME (Stellaria media): 100%
  Herbicidal activity VERPE (Veronica persica): 100%
  Herbicidal activity VIOTR (Viola tricolor): 100%
[2]; [4]
  Herbicidal activity ABUTH (Abutilon theophrasti): 100%
  Herbicidal activity AMARE (Amaranthus retroflexus): 100%
  Herbicidal activity ECHCG (Echinochloa crus-galli): 100%
  Herbicidal activity MATIN (Matricaria inodora): 90%
  Herbicidal activity SETVI (Setaria viridis): 90%
  Herbicidal activity STEME (Stellaria media): 100%
  Herbicidal activity VERPE (Veronica persica): 100%
  Herbicidal activity VIOTR (Viola tricolor): 100%

## Cn1nnnc1NC(=O)c1ccc(C(F)(F)F)c2c1SCCCS2 [2-5]
[1]; [4]
  Herbicidal activity ABUTH (Abutilon theophrasti): 100%
  Herbicidal activity AMARE (Amaranthus retroflexus): 100%
  Herbicidal activity ECHCG (Echinochloa crus-galli): 100%
  Herbicidal activity MATIN (Matricaria inodora): 100%
  Herbicidal activity STEME (Stellaria media): 100%
  Herbicidal activity VERPE (Veronica persica): 100%
  Herbicidal activity VIOTR (Viola tricolor): 100%
[2]; [5]
  Herbicidal activity ABUTH (Abutilon theophrasti): 90%
  Herbicidal activity AMARE (Amaranthus retroflexus): 90%
  Herbicidal activity ECHCG (Echinochloa crus-galli): 90%
  Herbicidal activity VIOTR (Viola tricolor): 80%

## Cn1nnnc1NC(=O)c1ccc(C(F)(F)F)c2c1[S+]([O-])CCCS2 (stereo not drawn) [2-76]
[1]; [4]
  Herbicidal activity AMARE (Amaranthus retroflexus): 90%
  Herbicidal activity VIOTR (Viola tricolor): 90%
[2]; [5]
  Herbicidal activity ABUTH (Abutilon theophrasti): 80%
  Herbicidal activity ECHCG (Echinochloa crus-galli): 90%

## Cn1nnnc1NC(=O)c1ccc(C(F)(F)F)c2c1OCCC[S+]2[O-] (stereo not drawn) [2-16]
[1]; [3]
  Herbicidal activity ABUTH (Abutilon theophrasti): 100%
  Herbicidal activity AMARE (Amaranthus retroflexus): 100%
  Herbicidal activity AVEFA (Avena fatua): 80%
  Herbicidal activity CYPES (Cyperus esculentus): 100%
  Herbicidal activity ECHCG (Echinochloa crus-galli): 100%
  Herbicidal activity MATIN (Matricaria inodora): 100%
  Herbicidal activity PHBPU (Ipomoea purpurea): 80%
  Herbicidal activity POLCO (Polygonum convolvulus): 80%
  Herbicidal activity SETVI (Setaria viridis): 100%
  Herbicidal activity STEME (Stellaria media): 100%
  Herbicidal activity VERPE (Veronica persica): 100%
  Herbicidal activity VIOTR (Viola tricolor): 100%
[2]; [4]
  Herbicidal activity ABUTH (Abutilon theophrasti): 100%
  Herbicidal activity AMARE (Amaranthus retroflexus): 100%
  Herbicidal activity ECHCG (Echinochloa crus-galli): 100%
  Herbicidal activity MATIN (Matricaria inodora): 100%
  Herbicidal activity SETVI (Setaria viridis): 90%
  Herbicidal activity STEME (Stellaria media): 100%
  Herbicidal activity VERPE (Veronica persica): 90%
  Herbicidal activity VIOTR (Viola tricolor): 100%

## Cn1nnnc1NC(=O)c1ccc(C(F)(F)F)c2c1OCCCS2 [2-13, 6-(trifluoromethyl)-3,4-dihydro-2H-1,5-benzoxathiepine-N-(1-methyltetrazol-5-yl)-8-carboxamide]
[1]; [3]
  Herbicidal activity ABUTH (Abutilon theophrasti): 100%
  Herbicidal activity AMARE (Amaranthus retroflexus): 100%
  Herbicidal activity AVEFA (Avena fatua): 100%
  Herbicidal activity CYPES (Cyperus esculentus): 90%
  Herbicidal activity ECHCG (Echinochloa crus-galli): 100%
  Herbicidal activity MATIN (Matricaria inodora): 100%
  Herbicidal activity PHBPU (Ipomoea purpurea): 100%
  Herbicidal activity POLCO (Polygonum convolvulus): 100%
  Herbicidal activity SETVI (Setaria viridis): 100%
  Herbicidal activity STEME (Stellaria media): 100%
  Herbicidal activity VERPE (Veronica persica): 100%
  Herbicidal activity VIOTR (Viola tricolor): 100%
[1]; [6]
  Herbicidal action against ABUTH (Abutilon theophrasti): 100%
  Herbicidal action against ALOMY (Alopecurus myosuroides): 100%
  Herbicidal action against AVEFA (Avena fatua): 100%
  Herbicidal action against MATIN (Matricaria inodora): 100%
  Herbicidal action against SETVI (Setaria viridis): 100%
[1]; pre-emergence, comparative experiment, numerous harmful plants
  herbicidal activity compared to that of compound No. A-117: superiority of the compound according to the invention was demonstrated clearly
[2]; [4]
  Herbicidal activity ABUTH (Abutilon theophrasti): 100%
  Herbicidal activity AMARE (Amaranthus retroflexus): 100%
  Herbicidal activity ECHCG (Echinochloa crus-galli): 100%
  Herbicidal activity MATIN (Matricaria inodora): 80%
  Herbicidal activity SETVI (Setaria viridis): 100%
  Herbicidal activity STEME (Stellaria media): 100%
  Herbicidal activity VERPE (Veronica persica): 100%
  Herbicidal activity VIOTR (Viola tricolor): 100%
[2]; [7]
  Herbicidal action against ABUTH (Abutilon theophrasti): 100%
  Herbicidal action against ALOMY (Alopecurus myosuroides): 90%
  Herbicidal action against AVEFA (Avena fatua): 100%
  Herbicidal action against PHPBU: 90%
  Herbicidal action against POLCO (Polygonum convolvulus): 80%
[2]; post-emergence, comparative experiment, numerous harmful plants
  herbicidal activity compared to that of compound No. A-117: superiority of the compound according to the invention was demonstrated clearly
